Consider one molecule from publication PMC3160846 (PLoS ONE, 2011).

Holding throughout (assay type): cell-based, Human
One test concerns HONE-1 cells. Nature of the test: Clonogenic assay, HONE-1. The protocol: (§1) Human lung adenocarcinoma A549 cells and NTUB1 bladder cancer cells were maintained in RPMI supplied with 10% fetal bovine serum. […] KB-derived MRP1-expressing cell line, KB-7D, was maintained in growth medium supplemented with 7 µM VP-16.
(§2) Two hundred cells in logarithmic growth phase were seeded in a 6-well plate. The cells were exposed to various concentrations of the test drugs for a three-generation period. At the end of the incubation period, cells were fixed and stained with 50% ethanol containing 0.5% methylene blue for 30 min. The plates were washed five times with water and allowed to air-dry. Colonies were countered manually. […] Each value represents the average of at least three independent experiments run in triplicates.

In the next test the test system is NTUB1 cells. The test is described as follows: Clonogenic assay, NTUB1. The procedure:
as §1, §2

The subject of a further test is NTU0.017 cells. Nature of the test: Clonogenic assay, NTU0.017. The protocol:
as §1, §2

A further test deals with MV4-11 cells. Nature of the test: Clonogenic assay, MV4-11. The procedure: as §1, §2
For the next test, the system named is KB-S15 cells. The test is described as follows: Clonogenic assay, KB-S15. The protocol: as §1, §2
The next test deals with A549 cells. Nature of the test: Clonogenic assay, A549. The protocol: as §1, §2
The next test concerns OECM-1 cells. Nature of the test: Clonogenic assay, OECM-1. The protocol: as §1, §2
For the next test, the system named is KB-VIN10 cells. The test is described as follows: Clonogenic assay, KB-VIN10. The procedure:
as §1, §2

A further test has as its system IM9 cells. Nature of the test: Clonogenic assay, IM9. The protocol: as §1, §2
For a further test, the system named is HT29 cells. The test is described as follows: Clonogenic assay, HT29. The protocol: as §1, §2
The subject of the next test is KB cells. The test is described as follows: Clonogenic assay, KB. The protocol: as §1, §2

Turning to `CO[C@@H](C(=O)N1Cc2n[nH]c(NC(=O)c3ccc(N4CCN(C)CC4)cc3)c2C1)c1ccccc1` [PHA-739358], the “Fold difference as compare to the IC50 of BPR1K653” value with HONE-1 cells (HONE-1) is on record as 5 fold; in the test on NTUB1 cells (NTUB1), 51 fold; in the test on MV4-11 cells (MV4-11) it was 17 fold; in the test on A549 cells (A549) it was 6 fold; in the test with OECM-1 cells (OECM-1), 5 fold; in the test with IM9 cells (IM9), 113 fold. Also, the “Fold difference as compare to the IC50 of BPR1K653” value came to 4 fold with HT29 cells (HT29) and 33 fold in the test on KB cells. For the same molecule, the IC50 – broadly, the midpoint of a concentration-inhibition curve – is 59 ± 16 nM in the test on HONE-1 cells (Homo sapiens, HONE1, HONE-1, oral, p53 mutant, MDR1 negative, read-out: IC50, anti-proliferative activity); 405 ± 134 nM in the test with NTUB1 cells (Homo sapiens, NTUB1, bladder, MDR1 negative (parental), read-out: IC50, anti-proliferative activity); over 50000 nM in the test with NTU0.017 cells (Homo sapiens, NTU0.017, paclitaxol resistant, MDR1 ↑, read-out: IC50, anti-proliferative activity); 86 ± 11 nM in the test with MV4-11 cells (Homo sapiens, MV4-11, leukemia, p53 mutant, MDR1 negative, read-out: IC50, anti-proliferative activity); 4700 nM in the test on KB-S15 cells (Homo sapiens, KB-S15, paclitaxol resistant, MDR1 ↑, read-out: IC50, anti-proliferative activity); 56 ± 8 nM with A549 cells (Homo sapiens, A549, lung, p53 wild-type, MDR1 negative, read-out: IC50, anti-proliferative activity). For the same molecule, the IC50 in the test with OECM-1 cells (Homo sapiens, OECM1, OECM-1, oral, p53 mutant, MDR1 negative, read-out: IC50, anti-proliferative activity) is 642 ± 68 nM; in the test with KB-VIN10 cells (Homo sapiens, KB-VIN10, vincristine resistant, MDR1 ↑, read-out: IC50, anti-proliferative activity) it was over 25000 nM; in the test with IM9 cells (Homo sapiens, IM9, lymphoma, p53 wild-type, MDR1 negative, read-out: IC50, anti-proliferative activity), 450 ± 12 nM; with HT29 cells (Homo sapiens, HT-29, HT29, colon, p53 mutant, MDR1 negative, read-out: IC50, anti-proliferative activity) it was 48 ± 8 nM; in the test on KB cells (Homo sapiens, cervical, p53 wild-type, MDR1 negative (parental), read-out: IC50, anti-proliferative activity), 400 ± 100 nM. For the same molecule, the “Fold difference as compare to the IC50 in the respective parental cells” value is on record as over 123 fold with NTU0.017 cells (NTU0.017 vs NTUB1), 12 fold in the test on KB-S15 cells (KB-S15 vs KB) and over 63 fold in the test on KB-VIN10 cells (KB-VIN10 vs KB).
